Values quoted from earlier work in publication PMC4226840, “An open-label study to determine the maximum tolerated dose of the multitargeted tyrosine kinase inhibitor CEP-11981 in patients with advanced cancer” (Investigational New Drugs, 2014).

Columns and labels:
VEGFR-2 = conditions: HUVEC; cited from earlier work
[1] = tested on: treatment refractory metastatic colorectal cancer; parameters: method as in PMID 23177514; conditions: phase III, monotherapy, versus 5.0 months, P = 0.0052; cited from earlier work

Row | Structure (SMILES) | IC50 (VEGFR-2) [nM] | Overall survival [1] [months]
2 | CNC(=O)c1cc(Oc2ccc(NC(=O)Nc3ccc(Cl)c(C(F)(F)F)c3)c(F)c2)ccn1 [regorafenib] |  | 6.4
